Converted amounts (≈) assume the structure as drawn.
Legend:
[1] = tested on: Poliovirus type 1 (Polio 1, Sabin); experiment: microbe, parasite or virus in culture; assay type: cell-based
[2] = tested on: echovirus type 11 (Echo 11, Gregory); experiment: In vitro anti-picornavirus activity (MTT), Echo 11; assay type: cell-based; conditions: HeLa-S3 cells, MTT method, 37° C.
[3] = tested on: coxsackievirus type A7 (CA7); experiment: In vitro anti-picornavirus activity (MTT), CA7; assay type: cell-based; conditions: HeLa-S3 cells, MTT method, 37° C.
[4] = tested on: coxsackievirus type B4 (CB4,JVB); experiment: In vitro anti-picornavirus activity (MTT), CB4; assay type: cell-based; conditions: HeLa cells, MTT method, 37° C.
[5] = tested on: human rhinovirus type 1B (HRV 1B, B632); experiment: Anti-rhinovirus activity (MTT), HRV1B; assay type: cell-based; conditions: HeLa (Ohio strain) cells, MTT method, 33° C.
HRV 2 (HGP) = experiment: Anti-rhinovirus activity (MTT), HRV2; assay type: cell-based, human rhinovirus; conditions: HeLa (Ohio strain) cells, MTT method, 33° C.
HRV 89 (41617-Gallo) = experiment: Anti-rhinovirus activity (MTT), HRV89; assay type: cell-based, human rhinovirus; conditions: HeLa (Ohio strain) cells, MTT method, 33° C.
HeLa cells = experiment: Cytotoxicity (MTT, without virus), HeLa; conditions: HeLa, no virus, incubated for 4 days
HeLa-S3 cells = experiment: Cytotoxicity (MTT, without virus), HeLa-S3; conditions: HeLa-S3, no virus, incubated for 4 days
HeLa (Ohio strain)cells = experiment: Cytotoxicity (MTT, without virus), HeLa(Ohio); conditions: HeLa(Ohio), no virus, incubated for 4 days

Row | SMILES | IC50 Polio 1 [1] | IC50 Echo 11 [2] | IC50 CA7 [3] | IC50 CB4 [4] | IC50 HRV1B [5] | IC50 HRV2 (HRV 2 (HGP)) | IC50 HRV89 (HRV 89 (41617-Gallo)) | Cytotoxicity CC50 HeLa (HeLa cells) | Cytotoxicity CC50 HeLa-S3 (HeLa-S3 cells) | Cytotoxicity CC50 HeLa(Ohio) (HeLa (Ohio strain)cells)
1 | CCn1c(-c2nccs2)cc(=O)c2cc(C(C)C)ccc21 [Compound A319] | 2.0 µg/mL (≈ 6.7 µM) | 0.81 µg/mL (≈ 2.71 µM) | 8.9 µg/mL (≈ 29.8 µM) | 9.4 µg/mL (≈ 31.5 µM) | 1.5 µg/mL (≈ 5.03 µM) | 0.80 µg/mL (≈ 2.68 µM) | 2.0 µg/mL (≈ 6.7 µM) | 35 µg/mL | >50 µg/mL | 32 µg/mL
2 | COc1ccc(-c2c(C)c(=O)c3cc(C(C)C)ccc3n2C)cc1 [Compound A81] | 0.78 µg/mL (≈ 2.43 µM) | 0.52 µg/mL (≈ 1.62 µM) | 0.78 µg/mL (≈ 2.43 µM) | 2.2 µg/mL (≈ 6.84 µM) | 1.7 µg/mL (≈ 5.29 µM) | 0.86 µg/mL (≈ 2.68 µM) | 0.55 µg/mL (≈ 1.71 µM) | 6.5 µg/mL | 7.6 µg/mL | 5.8 µg/mL
3 | Cc1c(-c2ccccc2)n(-c2ccccc2F)c2ccc(C(C)C)cc2c1=O [Compound A321] |  |  |  |  | 0.60 µg/mL (≈ 1.62 µM) | 0.056 µg/mL (≈ 0.151 µM) | 0.066 µg/mL (≈ 0.178 µM) |  |  | >1 µg/mL
4 | CCn1c(-c2ccc(Br)s2)cc(=O)c2cc(C(C)C)ccc21 [Compound A317] | 0.81 µg/mL (≈ 2.15 µM) | 0.35 µg/mL (≈ 0.93 µM) | 2.6 µg/mL (≈ 6.91 µM) | 1.1 µg/mL (≈ 2.92 µM) | 0.82 µg/mL (≈ 2.18 µM) | 0.43 µg/mL (≈ 1.14 µM) | 0.40 µg/mL (≈ 1.06 µM) | >5 µg/mL | >5 µg/mL | >5 µg/mL
5 | Cc1cc2c(cc1OCC(C)C)c(=O)c(C)c(-c1ccccc1)n2C [Compound A234] | 0.89 µg/mL (≈ 2.65 µM) | 0.25 µg/mL (≈ 0.745 µM) | 3.8 µg/mL (≈ 11.3 µM) | 2.5 µg/mL (≈ 7.45 µM) | 1.0 µg/mL (≈ 2.98 µM) | 0.26 µg/mL (≈ 0.775 µM) | 0.32 µg/mL (≈ 0.954 µM) | >5 µg/mL | >5 µg/mL | >5 µg/mL
6 | CC(C)c1ccc2c(c1)c(=O)cc(-c1ccc(Br)s1)n2C [Compound A316] | 0.78 µg/mL (≈ 2.15 µM) | 0.39 µg/mL (≈ 1.08 µM) | 1.2 µg/mL (≈ 3.31 µM) | 1.1 µg/mL (≈ 3.04 µM) | 0.56 µg/mL (≈ 1.55 µM) | 0.29 µg/mL (≈ 0.8 µM) | 0.27 µg/mL (≈ 0.745 µM) | >5 µg/mL | >5 µg/mL | >5 µg/mL
7 | CCn1c(-c2ccccc2)c(C)c(=O)c2cc(OCC(C)C)c(C)cc21 [Compound A235] | 0.72 µg/mL (≈ 2.06 µM) | 0.27 µg/mL (≈ 0.773 µM) | 2.8 µg/mL (≈ 8.01 µM) | 2.9 µg/mL (≈ 8.3 µM) | 0.75 µg/mL (≈ 2.15 µM) | 0.24 µg/mL (≈ 0.687 µM) | 0.35 µg/mL (≈ 1 µM) | >4 µg/mL | >4 µg/mL | >4 µg/mL
8 | Cc1c(-c2ccccc2)n(C)c2ccc(OCC(C)C)c(N)c2c1=O.Cl [Compound A194] | 0.58 µg/mL | 0.45 µg/mL | 1.7 µg/mL | 1.3 µg/mL | 0.05 µg/mL | 0.49 µg/mL | 0.18 µg/mL | >2.5 µg/mL | >2.5 µg/mL | >2.5 µg/mL
9 | CCn1c(-c2ccccc2)c(C)c(=O)c2cc(OCC(C)C)ccc21 [Compound A130] | 0.86 µg/mL (≈ 2.56 µM) | 0.32 µg/mL (≈ 0.954 µM) | 0.17 µg/mL (≈ 0.507 µM) | >4 µg/mL | 0.90 µg/mL (≈ 2.68 µM) | 0.65 µg/mL (≈ 1.94 µM) | 0.72 µg/mL (≈ 2.15 µM) | >4 µg/mL | >4 µg/mL | >4 µg/mL
10 | Cc1ccc(-n2c(-c3ccccc3)c(C)c(=O)c3cc(C(C)C)ccc32)cc1 [Compound A325] | >2.5 µg/mL | >2.5 µg/mL | >2.5 µg/mL | >2.5 µg/mL | >2.5 µg/mL | 0.066 µg/mL (≈ 0.18 µM) | 0.022 µg/mL (≈ 0.0599 µM) | >2.5 µg/mL | >2.5 µg/mL | >2.5 µg/mL
11 | CCn1c(-c2ccccn2)cc(=O)c2cc(C(C)C)ccc21 [Compound A296] | 5.1 µg/mL (≈ 17.4 µM) | 1.7 µg/mL (≈ 5.81 µM) | 20 µg/mL (≈ 68.4 µM) | 17 µg/mL (≈ 58.1 µM) | 4.5 µg/mL (≈ 15.4 µM) | 2.0 µg/mL (≈ 6.84 µM) | 4.8 µg/mL (≈ 16.4 µM) | 75 µg/mL | >100 µg/mL | 68 µg/mL
12 | COc1ccc(-c2cc(=O)c3cc(C(C)C)ccc3n2C)cc1C [Compound A97] | 0.54 µg/mL (≈ 1.68 µM) | 0.3 µg/mL (≈ 0.933 µM) | 2.1 µg/mL (≈ 6.53 µM) | 1.4 µg/mL (≈ 4.36 µM) | 0.58 µg/mL (≈ 1.8 µM) | 0.61 µg/mL (≈ 1.9 µM) | 0.14 µg/mL (≈ 0.436 µM) | 5.1 µg/mL | >10 µg/mL | 4.5 µg/mL
13 | COc1ccc(-c2c(C)c(=O)c3cc(OCC(C)C)c(C)cc3n2C)cc1C [Compound A237] | 1.1 µg/mL (≈ 2.9 µM) | 0.40 µg/mL (≈ 1.05 µM) | >4 µg/mL | 2.9 µg/mL (≈ 7.64 µM) | 2.0 µg/mL (≈ 5.27 µM) | 0.29 µg/mL (≈ 0.764 µM) | 0.46 µg/mL (≈ 1.21 µM) | >4 µg/mL | >4 µg/mL | >4 µg/mL
14 | Cc1ccc(-c2cc(=O)c3cc(C(C)C)ccc3n2C)s1 [Compound A314] | 0.60 µg/mL (≈ 2.02 µM) | 0.51 µg/mL (≈ 1.71 µM) | 1.5 µg/mL (≈ 5.04 µM) | 0.82 µg/mL (≈ 2.76 µM) | 0.56 µg/mL (≈ 1.88 µM) | 0.55 µg/mL (≈ 1.85 µM) | 0.38 µg/mL (≈ 1.28 µM) | 7.0 µg/mL | >10 µg/mL | >10 µg/mL
15 | Cc1c(-c2ccccc2)n(C)c2ccc(NCC(C)C)cc2c1=O [Compound A157] | 0.59 µg/mL (≈ 1.84 µM) | 0.27 µg/mL (≈ 0.843 µM) | 3.8 µg/mL (≈ 11.9 µM) | 4.9 µg/mL (≈ 15.3 µM) | 1.0 µg/mL (≈ 3.12 µM) | 0.56 µg/mL (≈ 1.75 µM) | 1.3 µg/mL (≈ 4.06 µM) | >5 µg/mL | >5 µg/mL | >5 µg/mL
16 | COc1ccc(-c2c(C)c(=O)c3c(C)c(OCC(C)C)ccc3n2C)cc1C [Compound A190] | 0.58 µg/mL (≈ 1.53 µM) | 0.23 µg/mL (≈ 0.606 µM) | 3.2 µg/mL (≈ 8.43 µM) | 2.4 µg/mL (≈ 6.32 µM) | 2.0 µg/mL (≈ 5.27 µM) | 0.57 µg/mL (≈ 1.5 µM) | 0.28 µg/mL (≈ 0.738 µM) | >4 µg/mL | >4 µg/mL | >4 µg/mL
17 | CCn1c(-c2ccc(C)s2)cc(=O)c2cc(C(C)C)ccc21 [Compound A315] | 0.54 µg/mL (≈ 1.73 µM) | 0.30 µg/mL (≈ 0.963 µM) | 1.2 µg/mL (≈ 3.85 µM) | 0.63 µg/mL (≈ 2.02 µM) | 0.52 µg/mL (≈ 1.67 µM) | 0.28 µg/mL (≈ 0.899 µM) | 0.26 µg/mL (≈ 0.835 µM) | 7.1 µg/mL | >10 µg/mL | >10 µg/mL
18 | CCn1c(-c2cccs2)c(C)c(=O)c2cc(C(C)C)ccc21 [Compound A311] | 0.67 µg/mL (≈ 2.15 µM) | 0.42 µg/mL (≈ 1.35 µM) | 3.3 µg/mL (≈ 10.6 µM) | 2.0 µg/mL (≈ 6.42 µM) | 1.0 µg/mL (≈ 3.21 µM) | 0.53 µg/mL (≈ 1.7 µM) | 1.2 µg/mL (≈ 3.85 µM) | 6.8 µg/mL | >10 µg/mL | >10 µg/mL
19 | CCCc1ccc2c(c1)c(=O)c(C)c(-c1ccccc1)n2CC [Compound A30] | 1.0 µg/mL (≈ 3.27 µM) | 0.42 µg/mL (≈ 1.38 µM) | 1.2 µg/mL (≈ 3.93 µM) | 1.8 µg/mL (≈ 5.89 µM) | 1.6 µg/mL (≈ 5.24 µM) | 0.48 µg/mL (≈ 1.57 µM) | 1.0 µg/mL (≈ 3.27 µM) | 6.0 µg/mL | 6.5 µg/mL | 5.8 µg/mL
20 | COc1ccc(-n2c(-c3ccccc3)c(C)c(=O)c3cc(C(C)C)ccc32)cc1 [Compound A326] | >2.5 µg/mL | >2.5 µg/mL | >2.5 µg/mL | >2.5 µg/mL | >2.5 µg/mL | 0.48 µg/mL (≈ 1.25 µM) | 0.067 µg/mL (≈ 0.175 µM) | >2.5 µg/mL | >2.5 µg/mL | >2.5 µg/mL

Source: patent US7109338B2, “1,2-disubstituted 1,4-dihydro-4-oxoquinoline compounds” (priority 1999, dated 2006)
